Reference: patent publication US20030125349A1, “Medicament containing cilansetron for the treatment of non-obstipative male irritable bowel syndrome patients” (Solvay Pharmaceuticals GmbH, priority 2000, published 2003)

Legend:
[1] = test system: non-obstipative IBS patients; assay: 12-week placebo-controlled clinical double-blind study, adequate alleviation of IBS symptoms; format: in vivo, human; conditions: for Final success rate: all patients (471; both sexes); for Success rate (responder rate, adequate alleviation of IBS symptoms): provisional result (454 patients)
Description: The effect of cilansetron on non-obstipative IBS patients of both sexes was investigated in a 12-week placebo-controlled clinical double-blind study with randomized selection and parallel test groups. […] Likewise, those patients were included in the study who responded “No” to the question about pain/feeling of unwellness in the lower abdomen only in ≦50% of the cases or who judged their pain/feeling of unwellness in the lower abdomen as “restrictive” for <2 times over a two-week observation period. Cilansetron was used in doses of 1, 2, 8 and 16 mg. The patients were checked weekly for “adequate alleviation” (=primary effectiveness parameter) of their IBS symptoms (stomach pains such as pains in the abdomen, abnormal bowel activity). Stomach pains such as pains in the abdomen, nature of the stools and stool frequency were rated daily by the patients (=secondary effectiveness parameter). In a provisional result of the double-blind study, the data of a total of 454 patients (297 female patients and 157 male patients) were evaluated and plotted in the table below. Corresponding to the criteria on which the clinical double-blind study was based, in both patient subgroups of male IBS patients and female IBS patients the success rates relating to the “adequate alleviation” of the IBS symptoms as set forth in the table below were noted: The “primary effectiveness parameter” corresponds to the success rate (=“responder rate”) to the question, which was put weekly to the patients, as to whether they had experienced “adequate alleviation” of their IBS symptoms (pain/feeling of unwellness in the lower abdomen, abnormal bowel activity) during the course of the previous week. A “responder” is regarded as a patient who was treated for at least four weeks and who responded “Yes” to the question posed of whether “adequate alleviation” of his/her IBS symptoms had occurred for at least half of his/her treatment period. At the end of the double-blind study, the data of a total of 471 patients (308 female patients and 163 male patients) were evaluated. The final success rates were 40% for the placebo group, 62% for the dose 1 mg cilansetron (TID), 53% for the dose 2 mg cilansetron (TID), 55% for the dose 8 mg cilansetron (TID) and 63% for the dose 16 mg cilansetron (TID).

[2] = test system: non-obstipative IBS patients; conditions: clinical tests, WO 99/17755, cited from earlier work

| SMILES | Final success rate ([1]; 1 mg TID, end of study) | Final success rate ([1]; 2 mg TID, end of study) | Final success rate ([1]; 8 mg TID, end of study) | Final success rate ([1]; 16 mg TID, end of study) | Response to treatment of non-obstipative IBS patients of both sexes ([1]; doses 1, 2, 8 and 16 mg) | Final success rates, male compared with female patient groups ([1]; end of study, greatest differences at 1 mg TID) | Success rate (responder rate, adequate alleviation of IBS symptoms) ([1]; female patients, 1 mg TID) | Success rate (responder rate, adequate alleviation of IBS symptoms) ([1]; female patients, 2 mg TID) | Success rate (responder rate, adequate alleviation of IBS symptoms) ([1]; female patients, 8 mg TID) | Success rate (responder rate, adequate alleviation of IBS symptoms) ([1]; female patients, 16 mg TID) | Success rate (responder rate, adequate alleviation of IBS symptoms) ([1]; male patients, 1 mg TID) | Success rate (responder rate, adequate alleviation of IBS symptoms) ([1]; male patients, 2 mg TID) | Success rate (responder rate, adequate alleviation of IBS symptoms) ([1]; male patients, 8 mg TID) | Success rate (responder rate, adequate alleviation of IBS symptoms) ([1]; male patients, 16 mg TID) | Effectiveness on female IBS patients compared with male IBS patients [2] | Improvement in condition compared with the placebo group ([2]; male test subjects) |
| --- | --- | --- | --- | --- | --- | --- | --- | --- | --- | --- | --- | --- | --- | --- | --- | --- |
| Cc1nccn1C[C@H]1CCc2c(c3cccc4c3n2CCC4)C1=O [Cilansetron, (R)-(−)-4,5,6,8,9,10-hexahydro-10-[(2-methyl-1H-imidazol-1-yl)methyl]-11H-pyrido-[3,2,1-jk]-carbazol-11-one] | 62% | 53% | 55% | 63% | respond to the treatment with cilansetron in all the dosages investigated | very similar for the male and female patient groups | 69.6% | 60.3% | 56.9% | 61.4% | 51.3% | 63.0% | 56.3% | 58.6% | – | – |
| Cc1[nH]cnc1CN1CCc2c(c3ccccc3n2C)C1=O [alosetron] | – | – | – | – | – | – | – | – | – | – | – | – | – | – | significantly better effectiveness on female IBS patients | no significant improvement in condition compared with the placebo group |
